# Assay results taken from ChEMBL document CHEMBL3286236, “Novel aromatic-polyamine conjugates as cholinesterase inhibitors with notable selectivity toward butyrylcholinesterase” (Bioorg Med Chem, 2014).
# Assays:
# HepG2 = test: cells; conditions: Homo sapiens, HepG2, 48 h
# Cholinesterase = Cholinesterase (Equus caballus, UniProt P81908)
# Description: Inhibition of equine serum BChE using butyrylthiocholine chloride as substrate by spectrophotometer analysis
# Acetylcholinesterase = Acetylcholinesterase (Electrophorus electricus, UniProt O42275)
# Description: Inhibition of electric eel AChE using acetylthiocholine chloride as substrate by spectrophotometer analysis
# [1] = Solubility of the compound; type: physicochemical
# Sequence of Acetylcholinesterase (O42275 whole entry): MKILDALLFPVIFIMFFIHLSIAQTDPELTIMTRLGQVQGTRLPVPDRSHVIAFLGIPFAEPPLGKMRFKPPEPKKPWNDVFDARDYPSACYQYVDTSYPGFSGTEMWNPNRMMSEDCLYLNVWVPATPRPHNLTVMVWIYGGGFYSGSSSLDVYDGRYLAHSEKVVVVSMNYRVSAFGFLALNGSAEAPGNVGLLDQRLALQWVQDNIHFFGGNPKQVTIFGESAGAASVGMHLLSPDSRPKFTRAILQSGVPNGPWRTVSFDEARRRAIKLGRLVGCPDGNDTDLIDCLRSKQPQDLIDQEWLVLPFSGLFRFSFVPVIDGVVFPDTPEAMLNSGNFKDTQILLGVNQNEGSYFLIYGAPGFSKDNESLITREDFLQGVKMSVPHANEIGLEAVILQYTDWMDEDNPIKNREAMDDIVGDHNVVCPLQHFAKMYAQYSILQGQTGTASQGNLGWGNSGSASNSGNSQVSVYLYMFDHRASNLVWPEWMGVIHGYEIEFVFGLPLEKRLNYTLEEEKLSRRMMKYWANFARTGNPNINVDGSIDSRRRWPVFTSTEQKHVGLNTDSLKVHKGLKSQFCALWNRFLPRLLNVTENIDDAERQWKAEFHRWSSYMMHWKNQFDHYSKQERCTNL
# Sequence of Cholinesterase (P81908 whole entry): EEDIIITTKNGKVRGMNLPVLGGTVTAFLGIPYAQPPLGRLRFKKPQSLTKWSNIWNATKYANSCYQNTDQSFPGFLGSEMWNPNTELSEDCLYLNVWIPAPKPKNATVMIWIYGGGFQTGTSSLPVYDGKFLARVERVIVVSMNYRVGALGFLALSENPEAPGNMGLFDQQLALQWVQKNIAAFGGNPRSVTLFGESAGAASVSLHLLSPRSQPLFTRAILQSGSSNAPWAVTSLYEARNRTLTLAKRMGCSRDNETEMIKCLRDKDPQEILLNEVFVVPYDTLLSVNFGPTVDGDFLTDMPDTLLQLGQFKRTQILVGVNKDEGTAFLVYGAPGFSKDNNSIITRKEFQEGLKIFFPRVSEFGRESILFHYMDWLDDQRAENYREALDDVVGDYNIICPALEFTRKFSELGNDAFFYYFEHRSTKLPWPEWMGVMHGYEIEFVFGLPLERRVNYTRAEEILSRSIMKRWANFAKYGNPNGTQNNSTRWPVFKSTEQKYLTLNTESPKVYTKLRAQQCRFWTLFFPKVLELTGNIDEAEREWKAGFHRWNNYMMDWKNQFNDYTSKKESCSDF
Structure (SMILES),IC50 (HepG2),IC50 (Cholinesterase),IC50 (Acetylcholinesterase),solubility [1]
NCCCNCCCNCC(=O)Nc1c2ccccc2cc2ccccc12,> 100 µM,0.305 µM,> 50 µM,–
O=C(CNCCCO)Nc1c2ccccc2cc2ccccc12,> 100 µM,0.502 µM,> 50 µM,–
NCCCNCCCCNCCCNCC(=O)Nc1c2ccccc2cc2ccccc12,> 100 µM,0.657 µM,> 50 µM,–
O=C(CNCCCO)Nc1cccc2ccccc12,> 100 µM,> 50 µM,> 50 µM,–
CN(C)CCNCC(=O)Nc1c2ccccc2cc2ccccc12,> 100 µM,0.161 µM,> 50 µM,–
NCCCNCCCCNCCCNCC(=O)Nc1cccc2ccccc12,> 100 µM,> 50 µM,> 50 µM,–
NCCCCNCC(=O)Nc1cccc2ccccc12,> 100 µM,10.3 µM,> 50 µM,–
NCCCCNCC(=O)Nc1c2ccccc2cc2ccccc12,> 100 µM,0.016 µM,> 50 µM,–
NCCCNCCCCNCC(=O)Nc1c2ccccc2cc2ccccc12,> 100 µM,0.164 µM,25.1 µM,–
O=C1c2c(O)ccc(O)c2C(=O)c2c(NCCNCCO)ccc(NCCNCCO)c21 [MITOXANTRONE],11.1 µM,–,–,–
O=C(CNCCCO)Nc1cccc2c1C(=O)c1ccccc1C2=O,23 µM,> 50 µM,11.1 µM,–
NCCCNCCCCNCC(=O)Nc1cccc2c1C(=O)c1ccccc1C2=O,15.6 µM,33 µM,2.63 µM,–
NCCCCCCNCC(=O)Nc1c2ccccc2cc2ccccc12,> 100 µM,0.023 µM,2.74 µM,–
NCCCNCCCCNCC(=O)Nc1cccc2ccccc12,> 100 µM,47.5 µM,> 50 µM,–
NCCCCNCC(=O)Nc1cccc2c1C(=O)c1ccccc1C2=O,24.2 µM,> 50 µM,1.5 µM,–
NCCCNCCCCNCCCNCC(=O)Nc1cccc2c1C(=O)c1ccccc1C2=O,11.5 µM,> 50 µM,7.22 µM,–
NCCCNCC(=O)Nc1c2ccccc2cc2ccccc12,> 100 µM,0.28 µM,> 50 µM,–
CCN(CC)CC(=O)Nc1c2ccccc2cc2ccccc12.Cl,–,–,–,Insoluble
Cl.O=C(CNC1CC1)Nc1c2ccccc2cc2ccccc12,–,–,–,Insoluble
CN(C)CCNCC(=O)Nc1cccc2ccccc12,> 100 µM,4.39 µM,> 50 µM,–
